# Assay results published in ChEMBL document CHEMBL1144510, “Synthesis of beta-ketophosphonate analogs of glutamyl and glutaminyl adenylate, and selective inhibition of the corresponding bacterial aminoacyl-tRNA synthetases” (Bioorg Med Chem, 2007).
# Key:
# [1] = Inhibition of Escherichia coli GlnRS
# [2] = Ratio of Ki for calf liver GluRS to Ki for Escherichia coli GluRS
# [3] = Inhibition of Escherichia coli GluRS
# [4] = Inhibition of cytoplasmic calf liver GluRS; set-up: species or system Bos taurus
Ratio Ki [2],Ki [4],Structure (SMILES),Ki [1],Ki [3]
145,2600 µM,Nc1ncnc2c1ncn2[C@@H]1O[C@H](COP(=O)(O)CC(=O)[C@@H](N)CCC(=O)O)[C@@H](O)[C@H]1O,2800 µM,18 µM
25,0.07 µM,Nc1ncnc2c1ncn2[C@@H]1OC(COS(=O)(=O)NC(=O)[C@@H](N)CCC(=O)O)[C@@H](O)[C@H]1O (some centres undefined),–,0.0028 µM
–,–,NC(=O)CC[C@H](N)C(=O)CP(=O)(O)OC[C@H]1O[C@@H](n2cnc3c(N)ncnc32)[C@H](O)[C@@H]1O,650 µM,2900 µM
